{
  "source": "ChEMBL document CHEMBL4765241",
  "about": "“Identification and Preclinical Pharmacology of ((1 R,3 S)-1-Amino-3-(( S)-6-(2-methoxyphenethyl)-5,6,7,8-tetrahydronaphthalen-2-yl)cyclopentyl)methanol (BMS-986166): A Differentiated Sphingosine-1-phosphate Receptor 1 (S1P) Modulator Advanced into Clinical Trials” (J Med Chem, 2019)",
  "key": {"Mus musculus [1]": {"tested_on": "Mus musculus", "assay": "(§1) Immunosuppressive activity in MOG (35 to 55 residues)/pertussis toxin-induced experimental autoimmune encephalomyelitis C57BL/6 mouse model assessed as maximum efficacy causing reduction in EAE spinal cord clinical score administered orally once daily starting from day 1 post immunization and measured thrice weekly until day 24", "format": "functional"}, "Mus musculus [2]": {"tested_on": "Mus musculus", "assay": "Immunosuppressive activity in MOG (35 to 55 residues)/pertussis toxin-induced experimental autoimmune encephalomyelitis C57BL/6 mouse model assessed as reduction in EAE clinical scores at 0.1 to 0.5 mg/kg, po QD starting from day 1 post immunization and observed at day 12 until day 24 relative to control", "format": "functional, organism-based", "settings": "dose 0.1-0.5 mg/kg"}, "[3]": {"assay": "Terminal half-life in beagle dog at 1 mg/kg, iv", "format": "ADME, organism-based, Canis lupus familiaris", "settings": "in vivo, read-out: beta t1/2 (converted)"}, "Cytochrome P450 2B6": {"target": "T1, Cytochrome P450 2B6 (Homo sapiens, UniProt P20813)", "T1 sequence (P20813 whole entry)": "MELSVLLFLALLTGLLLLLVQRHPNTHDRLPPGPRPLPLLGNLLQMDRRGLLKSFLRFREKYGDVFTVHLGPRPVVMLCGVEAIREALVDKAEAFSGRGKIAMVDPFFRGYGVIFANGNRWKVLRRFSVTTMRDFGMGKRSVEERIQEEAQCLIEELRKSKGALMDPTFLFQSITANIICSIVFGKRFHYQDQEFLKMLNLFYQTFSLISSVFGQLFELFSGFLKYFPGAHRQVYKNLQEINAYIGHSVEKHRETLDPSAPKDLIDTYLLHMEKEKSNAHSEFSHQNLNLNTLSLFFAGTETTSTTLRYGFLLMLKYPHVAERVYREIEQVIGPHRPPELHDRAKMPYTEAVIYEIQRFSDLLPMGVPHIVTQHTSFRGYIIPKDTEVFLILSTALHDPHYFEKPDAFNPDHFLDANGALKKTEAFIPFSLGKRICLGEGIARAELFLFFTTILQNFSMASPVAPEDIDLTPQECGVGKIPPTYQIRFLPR", "assay": "Inhibition of CYP2B6 (unknown origin)", "format": "ADME"}, "[4]": {"assay": "Tmax in cynomolgus monkey at 1 mg/kg, po or 1 mg/kg, iv", "format": "ADME, organism-based, Macaca fascicularis", "settings": "in vivo"}, "[5]": {"assay": "Protein binding in dog assessed as bound fraction", "format": "ADME, Canis lupus familiaris", "settings": "read-out: PB"}, "Mus musculus [6]": {"tested_on": "Mus musculus", "assay": "Antiarthritic activity in DBA/1 mouse model of collagen-induced arthritis assessed as reduction in clinical score administered orally once daily as single dose for 21 days", "format": "functional, organism-based", "settings": "time 21.0 day"}, "[7]": {"assay": "Distribution coefficient, log D of compound at pH 6.5", "format": "physicochemical", "settings": "octanol/water"}, "[8]": {"assay": "Dissociation constant, pKa of compound", "format": "physicochemical"}, "[9]": {"assay": "Ratio of drug metabolism in Lewis rat blood assessed as phosphate ester metabolite to parent drug at 2 mg/kg, po measured at 24 hrs by LC-MS/MS analysis", "format": "ADME, organism-based", "settings": "in vivo"}, "Mus musculus [10]": {"tested_on": "Mus musculus", "assay": "Antiarthritic activity in DBA/1 mouse model of collagen-induced arthritis assessed as maximum efficacy causing reduction in paw histological score administered orally once daily as single dose for 21 days", "format": "functional", "settings": "time 21 day"}, "[11]": {"assay": "Drug metabolism in Lewis rat blood assessed as concentration of parent compound at 2 mg/kg, po measured at 24 hrs by LC-MS/MS analysis", "format": "ADME, organism-based", "settings": "read-out: Ct"}, "[12]": {"assay": "Metabolic stability in human liver microsomes assessed as half-life measured upto 120 mins in presence of NADPH-generating system by LC/MS/MS analysis", "format": "ADME, Microsome"}, "[13]": {"assay": "Volume of distribution at steady state in Sprague-Dawley rat at 1 mg/kg, po or 1 mg/kg, iv", "format": "ADME, organism-based", "settings": "in vivo, read-out: Vdss"}, "[14]": {"assay": "Genotoxicity in bacteria by Ames test", "format": "toxicity"}, "Rattus norvegicus": {"tested_on": "Rattus norvegicus", "assay": "Drug metabolism in Lewis rat blood assessed as concentration of phosphate ester metabolite formation at 2 mg/kg, po measured at 4 hrs by LC-MS/MS analysis", "settings": "in vivo"}, "[15]": {"assay": "Protein binding in rat assessed as bound fraction", "format": "ADME", "settings": "read-out: PB"}, "[16]": {"assay": "Clearance in Beagle dog at 1 mg/kg, iv", "format": "ADME, organism-based, Canis lupus familiaris", "settings": "in vivo"}, "[17]": {"assay": "Tmax in Sprague-Dawley rat at 1 mg/kg, po or 1 mg/kg, iv", "format": "ADME, organism-based", "settings": "in vivo"}, "[18]": {"assay": "Oral bioavailability in cynomolgus monkey at 1 mg/kg", "format": "ADME, organism-based, Macaca fascicularis", "settings": "in vivo"}, "[19]": {"assay": "Oral bioavailability in Sprague-Dawley rat at 1 mg/kg", "format": "ADME, organism-based", "settings": "in vivo"}, "Mus musculus [20]": {"tested_on": "Mus musculus", "assay": "Antiarthritic activity in DBA/1 mouse model of collagen-induced arthritis assessed as reduction in paw histological score administered orally once daily as single dose for 21 days", "format": "functional, organism-based", "settings": "time 21.0 day"}, "[21]": {"assay": "Pulmonary toxicity in Lewis rat assessed as elevation of BAL protein level at 3 mg/kg by advia1800 chemistry analyzer", "format": "organism-based", "settings": "in vivo"}, "Mus musculus [22]": {"tested_on": "Mus musculus", "assay": "as §1, with “EAE” for “EAE spinal cord”", "format": "functional"}, "[23]": {"assay": "Metabolic stability in dog liver microsomes assessed as half-life measured upto 120 mins in presence of NADPH-generating system by LC/MS/MS analysis", "format": "ADME, Canis lupus familiaris, Microsome"}, "Cytochrome P450 2C8": {"target": "T2, Cytochrome P450 2C8 (Homo sapiens, UniProt P10632)", "T2 sequence (P10632 whole entry)": "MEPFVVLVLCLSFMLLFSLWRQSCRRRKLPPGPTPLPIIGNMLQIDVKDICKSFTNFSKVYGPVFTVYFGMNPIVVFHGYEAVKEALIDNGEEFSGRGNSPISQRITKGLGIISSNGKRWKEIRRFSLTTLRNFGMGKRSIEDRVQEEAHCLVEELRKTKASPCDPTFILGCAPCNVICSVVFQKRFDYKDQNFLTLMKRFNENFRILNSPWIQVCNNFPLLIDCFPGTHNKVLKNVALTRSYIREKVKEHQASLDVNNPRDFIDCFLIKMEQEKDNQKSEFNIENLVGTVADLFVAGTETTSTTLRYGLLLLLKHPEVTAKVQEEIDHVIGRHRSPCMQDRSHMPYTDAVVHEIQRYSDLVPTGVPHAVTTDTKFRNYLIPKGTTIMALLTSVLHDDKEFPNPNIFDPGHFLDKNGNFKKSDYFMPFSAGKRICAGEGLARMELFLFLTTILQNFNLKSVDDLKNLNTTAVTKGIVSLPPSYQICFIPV", "assay": "Inhibition of CYP2C8 (unknown origin)", "format": "ADME"}, "[24]": {"assay": "Terminal half-life in cynomolgus monkey at 1 mg/kg, iv", "format": "ADME, organism-based, Macaca fascicularis", "settings": "in vivo, read-out: beta t1/2 (converted)"}, "[25]": {"assay": "Protein binding in cynomolgus monkey assessed as bound fraction", "format": "ADME, Macaca fascicularis", "settings": "read-out: PB"}, "[26]": {"assay": "Drug metabolism in Lewis rat blood assessed as concentration of parent compound at 2 mg/kg, po measured at 4 hrs by LC-MS/MS analysis", "format": "ADME, organism-based", "settings": "read-out: Ct"}, "Mus musculus [27]": {"tested_on": "Mus musculus", "assay": "as §1, with “as” for “as maximum efficacy causing”, “in” for “in EAE spinal cord”, “scores for inflammation” for “score”", "format": "functional, organism-based", "settings": "dose 0.1-0.5 mg/kg"}, "[28]": {"assay": "Protein binding in mouse assessed as bound fraction", "format": "ADME", "settings": "read-out: PB"}, "[29]": {"assay": "AUC ratio in orally dosed Beagle dog blood assessed as phosphate metabolite to parent compound", "format": "ADME, organism-based, Canis lupus familiaris", "settings": "in vivo, po"}, "Cytochrome P450 2D6": {"target": "Cytochrome P450 2D6 (Homo sapiens, UniProt P10635)", "sequence (P10635 whole entry)": "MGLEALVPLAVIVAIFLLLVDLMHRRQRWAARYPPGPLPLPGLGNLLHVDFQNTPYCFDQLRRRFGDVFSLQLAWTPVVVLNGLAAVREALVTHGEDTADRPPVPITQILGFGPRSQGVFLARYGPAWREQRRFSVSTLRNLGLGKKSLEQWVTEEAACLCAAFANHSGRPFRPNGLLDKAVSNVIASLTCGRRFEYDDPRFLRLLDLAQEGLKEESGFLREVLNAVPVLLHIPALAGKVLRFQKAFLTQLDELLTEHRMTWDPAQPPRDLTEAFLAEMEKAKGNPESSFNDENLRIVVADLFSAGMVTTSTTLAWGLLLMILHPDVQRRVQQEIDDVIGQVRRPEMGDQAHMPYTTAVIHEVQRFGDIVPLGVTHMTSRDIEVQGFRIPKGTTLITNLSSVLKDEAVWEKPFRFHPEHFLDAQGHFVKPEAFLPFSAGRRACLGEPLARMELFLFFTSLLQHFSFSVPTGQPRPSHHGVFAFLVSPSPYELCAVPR", "assay": "Inhibition of CYP2D6 (unknown origin)", "format": "ADME"}, "Mus musculus [30]": {"tested_on": "Mus musculus", "assay": "Antiarthritic activity in DBA/1 mouse model of collagen-induced arthritis assessed as reduction in paw histological score at 0.5 mg/kg, po QD administered as single dose for 21 days", "format": "functional", "set-up": "scale not given: the % may be the effect or the level left", "settings": "time 21 day"}, "[31]": {"assay": "Terminal half-life in Sprague-Dawley rat at 1 mg/kg, iv", "format": "ADME, organism-based", "settings": "in vivo, read-out: beta t1/2 (converted)"}, "[32]": {"assay": "Pulmonary toxicity in Lewis rat assessed as elevation of BAL protein level at 10 mg/kg by advia1800 chemistry analyzer", "format": "organism-based", "settings": "in vivo"}},
  "note": "Activity calls are given as the source filed them. No cut-off for these calls is given here.",
  "data": [
    {"smiles": "COc1ccccc1CC[C@@H]1CCc2cc([C@H]3CC[C@](N)(CO)C3)ccc2C1", "note": "[UDIFITIMOD]", "values": [
      {"measurement": "Emax", "setting": "Mus musculus [1]", "result": 0.5, "unit": "mg/kg/day"},
      {"measurement": "Activity", "setting": "Mus musculus [2]", "result": "Active"},
      {"measurement": "half-life", "setting": "[3]", "result": 6.88, "unit": "days"},
      {"measurement": "IC50", "setting": "Cytochrome P450 2B6", "result": 17, "unit": "µM"},
      {"measurement": "Tmax", "setting": "[4]", "result": 6, "unit": "h"},
      {"measurement": "fraction unbound", "setting": "[5]", "result": "< 0.001"},
      {"measurement": "Activity", "setting": "Mus musculus [6]", "result": "Active"},
      {"measurement": "logD", "setting": "[7]", "result": 5.05},
      {"measurement": "pKa", "setting": "[8]", "result": 9.5},
      {"measurement": "Ratio", "setting": "[9]", "result": 5},
      {"measurement": "Emax", "setting": "Mus musculus [10]", "result": 0.5, "unit": "mg/kg/day"},
      {"measurement": "concentration at 24 h", "setting": "[11]", "result": 30, "unit": "nM"},
      {"measurement": "half-life", "setting": "[12]", "result": 242, "unit": "min"},
      {"measurement": "Vd", "setting": "[13]", "result": 16, "unit": "L/kg"},
      {"measurement": "Activity", "setting": "[14]", "result": "Non-Toxic"},
      {"measurement": "Drug metabolism", "setting": "Rattus norvegicus", "result": 180, "unit": "nM"},
      {"measurement": "fraction unbound", "setting": "[15]", "result": "< 0.001"},
      {"measurement": "clearance", "setting": "[16]", "result": 1.9, "unit": "mL/min/kg"},
      {"measurement": "Tmax", "setting": "[17]", "result": 6, "unit": "h"},
      {"measurement": "bioavailability", "setting": "[18]", "result": 76, "unit": "%"},
      {"measurement": "bioavailability", "setting": "[19]", "result": 23, "unit": "%"},
      {"measurement": "Activity", "setting": "Mus musculus [20]", "result": "Active"},
      {"measurement": "Activity", "setting": "[21]", "result": 8.8, "unit": "mg/dL"},
      {"measurement": "Emax", "setting": "Mus musculus [22]", "result": 0.5, "unit": "mg/kg/day"},
      {"measurement": "half-life", "setting": "[23]", "result": 372, "unit": "min"},
      {"measurement": "IC50", "setting": "Cytochrome P450 2C8", "result": 8.6, "unit": "µM"},
      {"measurement": "half-life", "setting": "[24]", "result": 2760, "unit": "min"},
      {"measurement": "fraction unbound", "setting": "[25]", "result": "< 0.001"},
      {"measurement": "concentration at 4 h", "setting": "[26]", "result": 40, "unit": "nM"},
      {"measurement": "Activity", "setting": "Mus musculus [27]", "result": "Dose-dependent effect"},
      {"measurement": "fraction unbound", "setting": "[28]", "result": "< 0.001"},
      {"measurement": "Ratio AUC", "setting": "[29]", "result": 3.1},
      {"measurement": "IC50", "setting": "Cytochrome P450 2D6", "result": 18, "unit": "µM"},
      {"measurement": "Activity", "setting": "Mus musculus [30]", "result": 92, "unit": "%"},
      {"measurement": "half-life", "setting": "[31]", "result": 2280, "unit": "min"},
      {"measurement": "Activity", "setting": "[32]", "result": 14, "unit": "mg/dL"}
    ]}
  ]
}
